From patent US20250262201A1, “COMPOUNDS AND METHODS USEFUL FOR STABILIZING PHENYLALANINE HYDROXYLASE MUTATIONS” (Agios Pharmaceuticals, Inc., priority 2022, published 2025) come the findings set out here.

Each structure is given as a SMILES string.

The test deals with T1, human PAH with the R408W mutation (Homo sapiens, UniProt P00439, R408W).
T1 construct: expressed in transfected cells
T1 sequence (P00439 1-452 R408W): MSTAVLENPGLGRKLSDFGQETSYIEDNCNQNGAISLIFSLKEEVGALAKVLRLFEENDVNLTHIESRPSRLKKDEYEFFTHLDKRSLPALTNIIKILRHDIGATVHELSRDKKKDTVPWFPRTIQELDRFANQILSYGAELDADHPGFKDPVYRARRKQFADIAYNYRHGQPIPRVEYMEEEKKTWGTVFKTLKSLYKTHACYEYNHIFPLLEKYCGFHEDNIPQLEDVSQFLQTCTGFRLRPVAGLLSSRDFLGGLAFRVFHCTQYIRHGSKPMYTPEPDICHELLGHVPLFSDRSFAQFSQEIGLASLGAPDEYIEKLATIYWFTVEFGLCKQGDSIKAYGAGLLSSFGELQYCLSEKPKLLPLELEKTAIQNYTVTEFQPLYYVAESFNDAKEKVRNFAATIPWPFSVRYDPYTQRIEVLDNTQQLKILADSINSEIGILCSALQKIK
The experiment in a line: Cell Based Phenylalanine Flux Assay. To be noted: A375 cells expressing human R408W PAH; 24 hrs compound incubation; 13C-Tyrosine by LC-MS; average where tested multiple times; read-out: AC50.
For the compound `Cn1cc(-c2nnc(C(=O)N3CCc4[nH]cnc4[C@@H]3c3cc4ccccc4cn3)o2)cn1` [Example 323, (S)-(4-(isoquinolin-3-yl)-6,7-dihydro-1H-imidazo[4,5-c]pyridin-5(4H)-yl)(5-(1-methyl-1H-pyrazol-4-yl)-1,3,4-oxadiazol-2-yl)methanone], the AC50 was over 5000 nM.

In the case of `O=C(c1nnc(-c2ccccn2)o1)N1CCc2[nH]cnc2[C@H]1c1cc2ccccc2cn1` [Example 324, (R)-(4-(isoquinolin-3-yl)-6,7-dihydro-1H-imidazo[4,5-c]pyridin-5(4H)-yl)(5-(pyridin-2-yl)-1,3,4-oxadiazol-2-yl)methanone], the AC50 was under 500 nM. In the case of `O=C(c1nnc(-c2ccccn2)o1)N1CCc2[nH]cnc2[C@@H]1c1cc2ccccc2cn1` [Example 325, (S)-(4-(isoquinolin-3-yl)-6,7-dihydro-1H-imidazo[4,5-c]pyridin-5(4H)-yl)(5-(pyridin-2-yl)-1,3,4-oxadiazol-2-yl)methanone] it was over 5000 nM; in that of `O=C(c1nnc(C2CC2)o1)N1CCc2[nH]cnc2[C@H]1c1cc2ccccc2cn1` [Example 326, (R)-(5-cyclopropyl-1,3,4-oxadiazol-2-yl)(4-(isoquinolin-3-yl)-6,7-dihydro-1H-imidazo[4,5-c]pyridin-5(4H)-yl)methanone], under 500 nM; in that of `CC(C)(O)c1ncc(C(=O)N2CCc3[nH]cnc3[C@H]2c2cc3ccccc3cn2)s1` [Example 328, (R)-(2-(2-hydroxypropan-2-yl)thiazol-5-yl)(4-(isoquinolin-3-yl)-6,7-dihydro-1H-imidazo[4,5-c]pyridin-5(4H)-yl)methanone], 500 to 1000 nM. `CC(C)(O)c1ncc(C(=O)N2CCc3[nH]cnc3[C@@H]2c2cc3ccccc3cn2)s1` [Example 329, (S)-(2-(2-hydroxypropan-2-yl)thiazol-5-yl)(4-(isoquinolin-3-yl)-6,7-dihydro-1H-imidazo[4,5-c]pyridin-5(4H)-yl)methanone]: the AC50 was over 5000 nM. `CN(C)Cc1ccc2c(C(=O)N3CCc4[nH]cnc4[C@H]3c3cc4ccccc4cn3)cnn2c1` [Example 330, (R)-(6-((dimethylamino)methyl)pyrazolo[1,5-a]pyridin-3-yl)(4-(isoquinolin-3-yl)-6,7-dihydro-1H-imidazo[4,5-c]pyridin-5(4H)-yl)methanone]: the AC50 is under 500 nM. For `CN(C)Cc1ccc2c(C(=O)N3CCc4[nH]cnc4[C@@H]3c3cc4ccccc4cn3)cnn2c1` [Example 331, (S)-(6-((dimethylamino)methyl)pyrazolo[1,5-a]pyridin-3-yl)(4-(isoquinolin-3-yl)-6,7-dihydro-1H-imidazo[4,5-c]pyridin-5(4H)-yl)methanone] the value was over 5000 nM. In the case of `CC(C)(F)c1ncc(C(=O)N2CCc3[nH]cnc3[C@H]2c2cc3ccccc3cn2)s1` [Example 332, (R)-(2-(2-fluoropropan-2-yl)thiazol-5-yl)(4-(isoquinolin-3-yl)-6,7-dihydro-1H-imidazo[4,5-c]pyridin-5(4H)-yl)methanone] it was under 500 nM. In the case of `CC(C)(F)c1ncc(C(=O)N2CCc3[nH]cnc3[C@@H]2c2cc3ccccc3cn2)s1` [Example 333, (S)-(2-(2-fluoropropan-2-yl)thiazol-5-yl)(4-(isoquinolin-3-yl)-6,7-dihydro-1H-imidazo[4,5-c]pyridin-5(4H)-yl)methanone] it was 1000 to 5000 nM; in that of `O=C(c1nnc(-c2c(F)cccc2F)o1)N1CCc2[nH]cnc2[C@H]1c1cc2ccccc2cn1` [Example 334, (R)-(5-(2,6-difluorophenyl)-1,3,4-oxadiazol-2-yl)(4-(isoquinolin-3-yl)-6,7-dihydro-1H-imidazo[4,5-c]pyridin-5(4H)-yl)methanone], under 500 nM; in that of `O=C(c1nnc(-c2c(F)cccc2F)o1)N1CCc2[nH]cnc2[C@@H]1c1cc2ccccc2cn1` [Example 335, (S)-(5-(2,6-difluorophenyl)-1,3,4-oxadiazol-2-yl)(4-(isoquinolin-3-yl)-6,7-dihydro-1H-imidazo[4,5-c]pyridin-5(4H)-yl)methanone], 1000 to 5000 nM. On to `Fc1ccc(-c2nnc(N3CCc4[nH]cnc4[C@@H]3c3cc4ccccc4cn3)o2)cc1` [Example 336, (S)-2-(4-fluorophenyl)-5-(4-(isoquinolin-3-yl)-6,7-dihydro-1H-imidazo[4,5-c]pyridin-5(4H)-yl)-1,3,4-oxadiazole], for which the concentration at half-maximal activity (AC50) is over 5000 nM.

In the case of `Fc1ccc(-c2nnc(N3CCc4[nH]cnc4[C@H]3c3cc4ccccc4cn3)o2)cc1` [Example 337, (R)-2-(4-fluorophenyl)-5-(4-(isoquinolin-3-yl)-6,7-dihydro-1H-imidazo[4,5-c]pyridin-5(4H)-yl)-1,3,4-oxadiazole], the AC50 is under 500 nM. On to `CC(C)(F)c1ncc(C(=O)N2CCc3[nH]cnc3[C@@H]2c2cc3ccccc3cn2)o1` [Example 338, (S)-(2-(2-fluoropropan-2-yl)oxazol-5-yl)(4-(isoquinolin-3-yl)-6,7-dihydro-1H-imidazo[4,5-c]pyridin-5(4H)-yl)methanone], for which the AC50 was over 5000 nM. For the compound `CC(C)(F)c1ncc(C(=O)N2CCc3[nH]cnc3[C@H]2c2cc3ccccc3cn2)o1` [Example 339, (R)-(2-(2-fluoropropan-2-yl)oxazol-5-yl)(4-(isoquinolin-3-yl)-6,7-dihydro-1H-imidazo[4,5-c]pyridin-5(4H)-yl)methanone], the AC50 is under 500 nM. Turning to `O=C(c1nnc(-c2ccc(F)cn2)o1)N1CCc2[nH]cnc2[C@H]1c1cc2ccccc2cn1` [Example 340, (R)-(5-(5-fluoropyridin-2-yl)-1,3,4-oxadiazol-2-yl)(4-(isoquinolin-3-yl)-6,7-dihydro-1H-imidazo[4,5-c]pyridin-5(4H)-yl)methanone], the AC50 is under 500 nM. For `O=C(c1nnc(-c2ccc(F)cn2)o1)N1CCc2[nH]cnc2[C@@H]1c1cc2ccccc2cn1` [Example 341, (S)-(5-(5-fluoropyridin-2-yl)-1,3,4-oxadiazol-2-yl)(4-(isoquinolin-3-yl)-6,7-dihydro-1H-imidazo[4,5-c]pyridin-5(4H)-yl)methanone] the value was over 5000 nM; for `O=C(c1nnc(-c2ccc(F)cc2)o1)N1CCc2[nH]cnc2[C@H]1c1cc2ccccc2cn1` [Example 342, (R)-(5-(4-fluorophenyl)-1,3,4-oxadiazol-2-yl)(4-(isoquinolin-3-yl)-6,7-dihydro-1H-imidazo[4,5-c]pyridin-5(4H)-yl)methanone], under 500 nM; for `O=C(c1nnc(-c2ccc(F)cc2)o1)N1CCc2[nH]cnc2[C@@H]1c1cc2ccccc2cn1` [Example 343, (S)-(5-(4-fluorophenyl)-1,3,4-oxadiazol-2-yl)(4-(isoquinolin-3-yl)-6,7-dihydro-1H-imidazo[4,5-c]pyridin-5(4H)-yl)methanone], over 5000 nM. For `CC(C)(F)c1ccc2c(C(=O)N3CCc4[nH]cnc4[C@H]3c3cc4ccccc4cn3)cnn2c1` [Example 344, (R)-(6-(2-fluoropropan-2-yl)pyrazolo[1,5-a]pyridin-3-yl)(4-(isoquinolin-3-yl)-6,7-dihydro-1H-imidazo[4,5-c]pyridin-5(4H)-yl)methanone] the value was 500 to 1000 nM. On to `Cc1nnc(CCC(=O)N2CCc3[nH]cnc3[C@H]2c2cc3ccccc3cn2)o1` [Example 345, (R)-1-(4-(isoquinolin-3-yl)-6,7-dihydro-1H-imidazo[4,5-c]pyridin-5(4H)-yl)-3-(5-methyl-1,3,4-oxadiazol-2-yl)propan-1-one], for which the AC50 lay within 500 to 1000 nM.

In the case of `O=C(CCc1nnc(C(F)F)o1)N1CCc2[nH]cnc2[C@H]1c1cc2ccccc2cn1` [Example 346, (R)-3-(5-(difluoromethyl)-1,3,4-oxadiazol-2-yl)-1-(4-(isoquinolin-3-yl)-6,7-dihydro-1H-imidazo[4,5-c]pyridin-5(4H)-yl)propan-1-one], the AC50 lay within 1000 to 5000 nM. On to `CC(C)(O)c1nnc(C(=O)N2CCc3[nH]cnc3[C@H]2c2cc3ccccc3cn2)o1` [Example 347, (R)-(5-(2-hydroxypropan-2-yl)-1,3,4-oxadiazol-2-yl)(4-(isoquinolin-3-yl)-6,7-dihydro-1H-imidazo[4,5-c]pyridin-5(4H)-yl)methanone], for which the AC50 was 500 to 1000 nM.

Take `O=C(c1ocnc1-c1ccccc1)N1CCc2[nH]cnc2[C@H]1c1cc2ccccc2cn1` [Example 348, (R)-(4-(isoquinolin-3-yl)-6,7-dihydro-1H-imidazo[4,5-c]pyridin-5(4H)-yl)(4-phenyloxazol-5-yl)methanone]: the AC50 is under 500 nM.

As to `O=C(Cc1nncs1)N1CCc2[nH]cnc2[C@H]1c1cc2ccccc2cn1` [Example 349, (R)-1-(4-(isoquinolin-3-yl)-6,7-dihydro-1H-imidazo[4,5-c]pyridin-5(4H)-yl)-2-(1,3,4-thiadiazol-2-yl)ethanone], the AC50 is under 500 nM. For `O=C(c1nncs1)N1CCc2[nH]cnc2[C@H]1c1cc2ccccc2cn1` [Example 350, (R)-(4-(isoquinolin-3-yl)-6,7-dihydro-1H-imidazo[4,5-c]pyridin-5(4H)-yl)(1,3,4-thiadiazol-2-yl)methanone] the value was under 500 nM. In the case of `Cc1nnc(CC(=O)N2CCc3[nH]cnc3[C@H]2c2cc3ccccc3cn2)s1` [Example 351, (R)-1-(4-(isoquinolin-3-yl)-6,7-dihydro-1H-imidazo[4,5-c]pyridin-5(4H)-yl)-2-(5-methyl-1,3,4-thiadiazol-2-yl)ethanone] it was 500 to 1000 nM.
